For 2 compounds, MIC results are on record in US5262417A, “Antibacterial quinolone compounds” (The Upjohn Company, priority 1991, dated 1993).

What all share (test): Minimum inhibitory concentration (MIC) by agar dilution
Assay type in all cases: cell-based
In general terms: In agar dilution the substance is mixed into plates at graded concentrations.

The subject of experiment [1] is Enterobacter cloacae. Here is the method: (§1) Briefly, MIC values are determined in unsupplemented Mueller Hinton Agar (MHA). The compounds tested are diluted serially into molten MHA at 47° C. The agar is poured into petri dishes and allowed to harden. The various bacteria used for testing are grown overnight on MHA at 35° C. and transferred to Trypticase soy broth (TSB) until a turbidity of 0.5 McFarland standard is obtained. The bacteria are diluted one to 20 in TSB and inoculated on the plates (1 μl using a Steers replicator).
as §1, with “Compounds of this invention can also be tested for in vitro antimicrobial activity using standard testing procedures such as the determination of minimum inhibitory concentration (MIC) by agar dilution as described in "Methods for Dilution Antimicrobial Susceptibility Tests for Bacteria That Grow Aerobically" (MFT) published Jan. […] Briefly,” for “Briefly,”, “(1μl” for “(1 μl”

The test system of experiment [2] is Escherichia coli. The following applies: Escherichia coli. Here is the method:
as §1, with “The antibacterial activity of the compounds of Formula IC was determined by using standard testing procedures such as the determination of minimum inhibitory concentration (MIC) by agar dilution as described in "Methods for Dilution Antimicrobial Susceptibility Tests for Bacteria That Grow Aerobically" (MFT) published January 1983 by the National Committee for Clinical Laboratory Standards, 771 East Lancaster Avenue, Villanova, Pa. 19084, USA. Briefly,” for “Briefly,”
(§2) Compounds of this invention can also be tested for in vitro antimicrobial activity using standard testing procedures such as the determination of minimum inhibitory concentration (MIC) by agar dilution as described in "Methods for Dilution Antimicrobial Susceptibility Tests for Bacteria That Grow Aerobically" (MFT) published Jan. 1983 by the National Committee for Clinical Laboratory Standards, 771 East Lancaster Avenue, Villanova, Penna. 19084, USA. Briefly, MIC values are determined in unsupplemented Mueller Hinton Agar (MHA). The compounds tested are diluted serially into molten MHA at 47° C. The agar is poured into petri dishes and allowed to harden. The various bacteria used for testing are grown overnight on MHA at 35° C. and transferred to Trypticase soy broth (TSB) until a turbidity of 0.5 McFarland standard is obtained. The bacteria are diluted one to 20 in TSB and inoculated on the plates (1μl using a Steers replicator). […] The MIC test results of selected of Formula B compounds of this invention are found in Tables B2-B9.

The subject of experiment [3] is Citerobacter freundii. Here is the method: (§3) The antibacterial activity of the compounds of Formula IC was determined by using standard testing procedures such as the determination of minimum inhibitory concentration (MIC) by agar dilution as described in "Methods for Dilution Antimicrobial Susceptibility Tests for Bacteria That Grow Aerobically" (MFT) published January 1983 by the National Committee for Clinical Laboratory Standards, 771 East Lancaster Avenue, Villanova, Pa. 19084, USA. Briefly, MIC values are determined in unsupplemented Mueller Hinton Agar (MHA). The compounds tested are diluted serially into molten MHA at 47° C. The agar is poured into petri dishes and allowed to harden. The various bacteria used for testing are grown overnight on MHA at 35° C. and transferred to Trypticase soy broth (TSB) until a turbidity of 0.5 McFarland standard is obtained. The bacteria are diluted one to 20 in TSB and inoculated on the plates (1 μl using a Steers replicator).
as §2

The test system of experiment [4] is Acinetobacter calcoaceticus. The conditions noted are these: Acinetobacter calcoaceticus. As to the method: as §3, §2
The subject of experiment [5] is Pseudomonas aeruginosa. The following applies: Pseudomonas aeruginosa. Here is the method: as §3, §2
Experiment [6] concerns Streptococcus faecalis. The conditions noted are these: Enterococcus faecalis. Here is the method:
as §3, §2

In experiment [7] the test system is Streptococcus pneumoniae. The following applies: Streptococcus pneumoniae. Here is the method:
as §3, §2

For experiment [8], the system named is Streptococcus pyogenes. The conditions noted are these: Streptococcus pyogenes. As to the method: as §3, §2
Experiment [9] deals with Proteus penneri. The conditions noted are these: Proteus penneri. Here is the method: as §3, §2
The test system of experiment [10] is Klebsiella pneumoniae. As to the method: as §3, §2
The test system of experiment [11] is Staphylococcus epidermidis. The conditions noted are these: 20 h. As to the method: as §3, §2
Experiment [12] concerns Staphylococcus aureus. The conditions noted are these: Staphylococcus aureus. Here is the method:
as §3, §2

The test system of experiment [13] is Serratia marcescens. The conditions noted are these: 20 h, read-out: MINIMUM INHIBITORY CONCENTRATION
Here is the method: as §3, §2

Setting [14] is: 20 h, read-out: MINIMUM INHIBITORY CONCENTRATION

Converted amounts (≈) assume the structure as drawn. Like-named read-outs stand apart in the source and are kept apart here.

For the compound `C#CC(C)(C)n1cc(C(=O)O)c(=O)c2cc(F)c(N3CCC(N)C3)nc21.CS(=O)(=O)O` (racemic) [E, (+,-)-7-(3-amino-1-pyrrolidinyl)-1,4-dihydro-1-(1,1-dimethyl-2-propynyl)-6-fluoro-4-oxo-1,8-naphthyridine-3-carboxylic acid methanesulfonate], the MIC in experiment [1] (UC9382, 20 h, E. cloacae UC 9382, Table CI, read-out: Minimum Inhibitory Concentration) stood at 0.06 µg/mL; in experiment [2] (UC6674, 20 h, E. coli UC 6674, Table CI, read-out: Minimum Inhibitory Concentration), 0.06 µg/mL; in experiment [2] (UC9451, 20 h, E. coli UC 9451, Table CI, read-out: Minimum Inhibitory Concentration) it was 0.06 µg/mL; in [2] (UC9855, 20 h, E. coli UC 9855, Table CI, read-out: Minimum Inhibitory Concentration), 0.06 µg/mL; in experiment [2] (UC9952, 20 h, E. coli UC 9952, Table CI, read-out: Minimum Inhibitory Concentration), 0.06 µg/mL; in [3] (Citrobacter freundii, UC3507, 20 h, C. freundii UC 3507, Table CI, read-out: Minimum Inhibitory Concentration), 0.06 µg/mL. Moreover, the MIC in [4] (UC12170, 20 h, A. calcoaceticus UC 12170, Table CI, read-out: Minimum Inhibitory Concentration) is 0.25 µg/mL; in experiment [5] (UC6676, 20 h, Ps. aeruginosa UC 6676, Table CI, read-out: Minimum Inhibitory Concentration), 2 µg/mL; in [5] (UC9191, 20 h, Ps. aeruginosa UC 9191, Table CI, read-out: Minimum Inhibitory Concentration), 1 µg/mL; in experiment [5] (UC12120, 20 h, Ps. aeruginosa UC 12120, Table CI, read-out: Minimum Inhibitory Concentration), 0.5 µg/mL; in [6] (UC9217, 20 h, S. faecalis UC 9217, Table CI, read-out: Minimum Inhibitory Concentration), 1 µg/mL; in experiment [7] (UC41, 20 h, S. pneumoniae UC 41, Table CI, read-out: Minimum Inhibitory Concentration), 0.5 µg/mL. For the same compound, the MIC in experiment [8] (UC152, 20 h, S. pyogenes UC 152, Table CI, read-out: Minimum Inhibitory Concentration) was 0.25 µg/mL; in experiment [9] (UC9679, 20 h, P. penneri UC 9679, Table CI, read-out: Minimum Inhibitory Concentration), 0.5 µg/mL; in experiment [10] (UC12081, 20 h, K. pneumoniae UC 12081, Table CI, read-out: Minimum Inhibitory Concentration), 0.125 µg/mL; in [11] (S. epidermidis 30031, Table CI, read-out: Minimum Inhibitory Concentration), 0.125 µg/mL; in experiment [12] (UC6685, 20 h, S. aureus UC 6685, Table CI, read-out: Minimum Inhibitory Concentration), 0.125 µg/mL; in experiment [12] (UC9213, 20 h, S. aureus UC 9213, Table CI, read-out: Minimum Inhibitory Concentration), 0.25 µg/mL. Further, the MIC in experiment [12] (UC9218, 20 h, S. aureus UC 9218, Table CI, read-out: Minimum Inhibitory Concentration) was 0.25 µg/mL; in [12] (UC9271, 20 h, S. aureus UC 9271, Table CI, read-out: Minimum Inhibitory Concentration), 0.25 µg/mL.

As to `NC1CCN(c2nc3c(cc2F)c(=O)c(C(=O)O)cn3C23CC(C2)C3)C1` (racemic) [No. 36, 7-(3-amino-1-pyrrolidinyl)-1-(bicyclo[1.1.1]pent-1-yl)-1,4-dihydro-6-fluoro-4-oxo-1,8-naphthyridine-3-carboxylic acid], the MIC in experiment [1] (setting [14]) is 0.03 µg/mL (≈ 0.0837 µM); in [2] (20 h, read-out: MINIMUM INHIBITORY CONCENTRATION, Cult No. 6674, MHA), 0.03 µg/mL (≈ 0.0837 µM); in [2] (20 h, read-out: MINIMUM INHIBITORY CONCENTRATION, Cult No. 9451, MHA), 0.03 µg/mL (≈ 0.0837 µM); in experiment [2] (20 h, read-out: MINIMUM INHIBITORY CONCENTRATION, Cult No. 9855, MHA), 0.06 µg/mL (≈ 0.167 µM); in experiment [2] (20 h, read-out: MINIMUM INHIBITORY CONCENTRATION, Cult No. 9952, MHA), 0.03 µg/mL (≈ 0.0837 µM); in experiment [3] (setting [14]), 0.03 µg/mL (≈ 0.0837 µM). In addition, the MIC was 0.125 µg/mL (≈ 0.349 µM) in experiment [13]; 0.125 µg/mL (≈ 0.349 µM) in [4] (20 h, read-out: MINIMUM INHIBITORY CONCENTRATION, Cult No. 12170, MHA); 1 µg/mL (≈ 2.79 µM) in experiment [5] (20 h, read-out: MINIMUM INHIBITORY CONCENTRATION, Cult No. 6676, MHA); 0.5 µg/mL (≈ 1.4 µM) in experiment [5] (20 h, read-out: MINIMUM INHIBITORY CONCENTRATION, Cult No. 9191, MHA); 0.25 µg/mL (≈ 0.698 µM) in experiment [5] (20 h, read-out: MINIMUM INHIBITORY CONCENTRATION, Cult No. 12120, MHA); 0.5 µg/mL (≈ 1.4 µM) in [6] (setting [14]). In addition, the MIC in experiment [7] (20 h, read-out: MINIMUM INHIBITORY CONCENTRATION, Cult No. 41, MHA) came out at 0.5 µg/mL (≈ 1.4 µM); in experiment [8] (20 h, read-out: MINIMUM INHIBITORY CONCENTRATION, Cult No. 152, MHA) it was 0.25 µg/mL (≈ 0.698 µM); in experiment [9] (20 h, read-out: MINIMUM INHIBITORY CONCENTRATION, Cult No. 9679, MHA), 0.25 µg/mL (≈ 0.698 µM); in [10] (setting [14]) it was 0.06 µg/mL (≈ 0.167 µM); in experiment [11] (read-out: MINIMUM INHIBITORY CONCENTRATION), 0.06 µg/mL (≈ 0.167 µM); in experiment [12] (20 h, read-out: MINIMUM INHIBITORY CONCENTRATION, Cult No. 6685, MHA) it was 0.125 µg/mL (≈ 0.349 µM). Also, the MIC worked out at 0.125 µg/mL (≈ 0.349 µM) in experiment [12] (20 h, read-out: MINIMUM INHIBITORY CONCENTRATION, Cult No. 9213, MHA); 0.125 µg/mL (≈ 0.349 µM) in experiment [12] (20 h, read-out: MINIMUM INHIBITORY CONCENTRATION, Cult No. 9218, MHA); 0.125 µg/mL (≈ 0.349 µM) in experiment [12] (20 h, read-out: MINIMUM INHIBITORY CONCENTRATION, Cult No. 9271, MHA).
